Measured values published in article PMC11859928, “Design, Synthesis, and Antiproliferative Activity of Novel Indole/1,2,4-Triazole Hybrids as Tubulin Polymerization Inhibitors” (Pharmaceuticals, 2025).

Key:
Assay in all cases: NCI one-dose assay
Assay type in all cases: cell-based
[1] = system: A549/ATCC; conditions: Homo sapiens, Non-small cell lung cancer, read-out: Cell growth inhibition %
Protocol: (§1) The National Cancer Institute (NCI), Bethesda, USA, selected the final compounds 6a–j and 7a–j for in vitro anticancer screening. An initial in vitro single-dose anticancer experiment was performed with the entire NCI 60 cell lines derived from nine tumor subpanel cancer cell lines. The results for each compound were illustrated as a mean graph showing the percentage growth of treated cells compared to untreated control cells (see Supplementary Materials).
(§2) The NCI anticancer screening process has been thoroughly detailed. The Drug Evaluation Branch of the National Cancer Institute in Bethesda, […], USA, established the procedure and conducted the anticancer assay on 60 human tumor cell lines from nine neoplastic cancers.

[2] = system: ACHN; conditions: Homo sapiens, Renal cancer, read-out: Cell growth inhibition %
Protocol: as §1, §2

[3] = system: BT-549; conditions: Homo sapiens, BT-549, Breast cancer, read-out: Cell growth inhibition %
Protocol: as §1, §2

[4] = system: CAKI-1; conditions: Homo sapiens, CAKI-1, Renal cancer, read-out: Cell growth inhibition %
Protocol: as §1, §2

[5] = system: CCRF-CEM; conditions: Homo sapiens, Leukemia, read-out: Cell growth inhibition %
Protocol: as §1, §2

[6] = system: COLO 205; conditions: Homo sapiens, COLO 205, Colon cancer, read-out: Cell growth inhibition %
Protocol: as §1, §2

[7] = system: DU-145; conditions: Homo sapiens, DU-145, Prostate cancer, read-out: Cell growth inhibition %
Protocol: as §1, §2

[8] = system: EKVX; conditions: Homo sapiens, Non-small cell lung cancer, read-out: Cell growth inhibition %
Protocol: as §1, §2

[9] = system: HCC-2998; conditions: Homo sapiens, HCC-2998, Colon cancer, read-out: Cell growth inhibition %
Protocol: as §1, §2

[10] = system: HCT-116; conditions: Homo sapiens, HCT-116, Colon cancer, read-out: Cell growth inhibition %
Protocol: as §1, §2

[11] = system: HCT-15; conditions: Homo sapiens, HCT-15, Colon cancer, read-out: Cell growth inhibition %
Protocol: as §1, §2

[12] = system: HL-60(TB); conditions: Homo sapiens, Leukemia, read-out: Cell growth inhibition %
Protocol: as §1, §2

[13] = system: HS 578 T; conditions: Homo sapiens, Breast cancer, read-out: Cell growth inhibition %
Protocol: as §1, §2

[14] = system: IGROV1; conditions: Homo sapiens, IGROV-1, IGROV1, Ovarian cancer, read-out: Cell growth inhibition %
Protocol: as §1, §2

[15] = system: K-562; conditions: Homo sapiens, K562, K-562, Leukemia, read-out: Cell growth inhibition %
Protocol: as §1, §2

[16] = system: KM12; conditions: Homo sapiens, KM12, Colon cancer, read-out: Cell growth inhibition %
Protocol: as §1, §2

[17] = system: MALME-3M; conditions: Homo sapiens, Melanoma, read-out: Cell growth inhibition %
Protocol: as §1, §2

[18] = system: MDA-MB-231/ATCC; conditions: Homo sapiens, Breast cancer, read-out: Cell growth inhibition %
Protocol: as §1, §2

[19] = system: MOLT-4; conditions: Homo sapiens, MOLT-4, Leukemia, read-out: Cell growth inhibition %
Protocol: as §1, §2

[20] = system: NCI-H226; conditions: Homo sapiens, NCI-H226, Non-small cell lung cancer, read-out: Cell growth inhibition %
Protocol: as §1, §2

[21] = system: NCI-H23; conditions: Homo sapiens, NCI-H23, Non-small cell lung cancer, read-out: Cell growth inhibition %
Protocol: as §1, §2

[22] = system: NCI-H460; conditions: Homo sapiens, NCI-H460, Non-small cell lung cancer, read-out: Cell growth inhibition %
Protocol: as §1, §2

[23] = system: NCI-H522; conditions: Homo sapiens, NCI-H522, Non-small cell lung cancer, read-out: Cell growth inhibition %
Protocol: as §1, §2

[24] = system: NCI/ADR-RES; conditions: Homo sapiens, Ovarian cancer, read-out: Cell growth inhibition %
Protocol: as §1, §2

[25] = system: OVCAR-3; conditions: Homo sapiens, OVCAR-3, Ovarian cancer, read-out: Cell growth inhibition %
Protocol: as §1, §2

[26] = system: OVCAR-5; conditions: Homo sapiens, OVCAR-5, Ovarian cancer, read-out: Cell growth inhibition %
Protocol: as §1, §2

[27] = system: PC-3; conditions: Homo sapiens, PC-3, Prostate cancer, read-out: Cell growth inhibition %
Protocol: as §1, §2

[28] = system: RPMI-8226; conditions: Homo sapiens, RPMI-8226, Leukemia, read-out: Cell growth inhibition %
Protocol: as §1, §2

[29] = system: SF-295; conditions: Homo sapiens, SF-295, CNS cancer, read-out: Cell growth inhibition %
Protocol: as §1, §2

[30] = system: SF-539; conditions: Homo sapiens, SF-539, CNS cancer, read-out: Cell growth inhibition %
Protocol: as §1, §2

[31] = system: SK-MEL-28; conditions: Homo sapiens, SK-MEL-28, Melanoma, read-out: Cell growth inhibition %
Protocol: as §1, §2

[32] = system: SK-OV-3; conditions: Homo sapiens, SK-OV-3, Ovarian cancer, read-out: Cell growth inhibition %
Protocol: as §1, §2

[33] = system: SN12C; conditions: Homo sapiens, Renal cancer, read-out: Cell growth inhibition %
Protocol: as §1, §2

[34] = system: SR; conditions: Homo sapiens, Leukemia, read-out: Cell growth inhibition %
Protocol: as §1, §2

[35] = system: U251; conditions: Homo sapiens, U-251, U251, CNS cancer, read-out: Cell growth inhibition %
Protocol: as §1, §2

[36] = system: UACC-257; conditions: Homo sapiens, UACC-257, Melanoma, read-out: Cell growth inhibition %
Protocol: as §1, §2

[37] = system: UACC-62; conditions: Homo sapiens, UACC-62, Melanoma, read-out: Cell growth inhibition %
Protocol: as §1, §2

Structure (SMILES) | inhibition at 10 µM [1] [%] | inhibition at 10 µM [2] [%] | inhibition at 10 µM [3] [%] | inhibition at 10 µM [4] [%] | inhibition at 10 µM [5] [%] | inhibition at 10 µM [6] [%] | inhibition at 10 µM [7] [%] | inhibition at 10 µM [8] [%] | inhibition at 10 µM [9] [%] | inhibition at 10 µM [10] [%] | inhibition at 10 µM [11] [%] | inhibition at 10 µM [12] [%] | inhibition at 10 µM [13] [%] | inhibition at 10 µM [14] [%] | inhibition at 10 µM [15] [%] | inhibition at 10 µM [16] [%] | inhibition at 10 µM [17] [%] | inhibition at 10 µM [18] [%] | inhibition at 10 µM [19] [%] | inhibition at 10 µM [20] [%] | other results
C=CCn1c(SCC(=O)c2ccc(OC)cc2)nnc1-c1c[nH]c2ccccc12 [Compound 6b, 2-((4-Allyl-5-(1H-indol-3-yl)-4H-1,2,4-triazol-3-yl)thio)-1-(4-methoxyphenyl) Ethenone] | -8.47 | 8.68 | -1.84 | 7.83 | 8.66 | 2.83 | -11.8 | 3.03 | -3.48 | 5.43 | 2.44 | 8.98 | 0.85 | 11.1 | 8.14 | -4.63 | 5.32 | 11.1 | 6.64 | 7.5 | inhibition at 10 µM [21]: 5.52%; inhibition at 10 µM [22]: -1.3%; inhibition at 10 µM [23]: 0.49%; inhibition at 10 µM [24]: -3.74%; inhibition at 10 µM [25]: -16.9%; inhibition at 10 µM [26]: -2.88%; inhibition at 10 µM [27]: 20.3%; inhibition at 10 µM [28]: 16.8%; inhibition at 10 µM [29]: 2.91%; inhibition at 10 µM [30]: 1.18%; inhibition at 10 µM [31]: 1.56%; inhibition at 10 µM [32]: -30.5%; inhibition at 10 µM [33]: 3.73%; inhibition at 10 µM [34]: 18.5%; inhibition at 10 µM [35]: 2.31%; inhibition at 10 µM [36]: -2.78%; inhibition at 10 µM [37]: 15.6%
C=CCn1c(SCC(=O)c2ccc(C)cc2)nnc1-c1c[nH]c2ccccc12 [Compound 6c, 2-((4-allyl-5-(1H-indol-3-yl)-4H-1,2,4-triazol-3-yl)thio)-1-(p-tolyl)ethanone] | 5.97 | 11 | 2.35 | 15.1 | 9.66 | -25.9 | -8.9 | 8.94 | -7.01 | 9.79 | 6.36 | 10.4 | -2.83 | 19.6 | 12.8 | -6.02 | 10.5 | 11.5 | 9.13 | 17.1 | inhibition at 10 µM [21]: -5.98%; inhibition at 10 µM [22]: 1.59%; inhibition at 10 µM [23]: 4.55%; inhibition at 10 µM [24]: 4.65%; inhibition at 10 µM [25]: -13.1%; inhibition at 10 µM [26]: -2.57%; inhibition at 10 µM [27]: 22.2%; inhibition at 10 µM [28]: 13.8%; inhibition at 10 µM [29]: 3.28%; inhibition at 10 µM [30]: 1.45%; inhibition at 10 µM [31]: -4.91%; inhibition at 10 µM [32]: -22.4%; inhibition at 10 µM [33]: 5.47%; inhibition at 10 µM [34]: 8.97%; inhibition at 10 µM [35]: 6.75%; inhibition at 10 µM [36]: 6.7%; inhibition at 10 µM [37]: 24.7%
